Tests used:
[1] = target: T1, human calcitonin receptor (CTR) (Homo sapiens, UniProt P30988); assay: Calcitonin Receptor (CTR) cAMP Assay; assay type: cell-based; details: COS7-human CTR Clone #2 stable cell line, cAMP dynamic 2 kit, 30 min; read-out: Calcitonin Receptor cAMP Stimulation Activity: EC50
T1 construct: expressed in transfected cells; host or cells: COS-7 (COS7-human CTR Clone #2)
T1 sequence (P30988 25-474): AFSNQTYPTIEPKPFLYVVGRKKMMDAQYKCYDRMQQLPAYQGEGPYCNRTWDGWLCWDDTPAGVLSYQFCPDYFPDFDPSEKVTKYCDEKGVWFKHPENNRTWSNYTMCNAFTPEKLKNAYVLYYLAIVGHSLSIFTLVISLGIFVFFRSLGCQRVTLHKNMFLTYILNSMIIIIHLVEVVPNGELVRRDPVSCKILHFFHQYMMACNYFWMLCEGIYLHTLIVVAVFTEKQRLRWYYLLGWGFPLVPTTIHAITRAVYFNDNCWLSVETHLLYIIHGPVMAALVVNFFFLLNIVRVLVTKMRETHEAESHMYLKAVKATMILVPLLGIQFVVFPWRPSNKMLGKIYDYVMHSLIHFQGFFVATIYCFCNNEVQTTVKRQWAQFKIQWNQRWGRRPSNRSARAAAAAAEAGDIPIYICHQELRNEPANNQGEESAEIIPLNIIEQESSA
Method: (§1) After incubation, the cAMP assay signal was generated using cAMP dynamic 2 kit (Revvity, Cat #62AM4PEC). 10 μL cAMP-d2 working solution was added to each well, followed by 10 μL Anti-cAMP antibody-cryptate working solution which was added to each well using CERTUS FLEX LIQUID […]. The samples were then incubated at room temperature for 1 hour protected from light. the fluorescence was read at 665 and 615 nm with Reader PerkinElmer EnVision 2105. % Activity=100−(mean RLU of test sample−mean RLU of positive control)/(mean RLU of vehicle control−mean RLU of positive control)×100 Calcitonin Receptor (CTR) cAMP Assay
The calcitonin receptor (CTR) belongs to the subfamily of GPCRs known as the secretin or ‘B’ family of GPCRs. Like other class B1 GPCRs, the CT receptor family is canonically coupled to Gs-mediated cAMP production, and measurement of cAMP accumulation has been the primary assay used to determine peptide selectivity and potency.
(§2) To optimize functional activity directed toward Gαs coupling, COS-7 cells were stably transfected with human calcitonin receptor (CTR) to create COS7-human CTR Clone #2 stable cell line. 100×concentration of compound working solutions were prepared with 4-fold serial dilution in 384-well Echo LDV plate (Labcyte, Cat #LP-0200-BC). 200 nL/well 100×concentration of compound working solutions were moved to 384-well white microplate (Perkin Elmer, Cat #6007680) using Labcyte ECHO550. 1×10^5 cells/mL COS7-human CTR Clone #2 cell suspensions prepared with assay buffer [HBSS containing 20 mM HEPES (Gibco, Cat #15630-080), 0.5 mM IBMX (Sigma, Cat #15879) and 0.1% Casein (Sigma, Cat #C4765)], 20 μL cell suspensions were added to each well of previous generated assay plate which already contains 200 nL compound at 100×concentration using ThermoFisher Multidrop Combi (2000 cells/well). Seal the plate and incubate at 37° C. with 5% CO2 for 30 min.
as §1, with “control)×100” for “control)×100 Calcitonin Receptor (CTR) cAMP Assay”

[2] = target: T2, COS-7/AMY3 (human calcitonin receptor (CTR) and RAMP3) (Homo sapiens, UniProt O60896+P30988); assay: Amylin Receptor cAMP Assay II; assay type: cell-based; details: values marked **: Amylin Receptor cAMP Assay II; COS-7/AMY3 cells, cAMP dynamic 2 kit, 30 min; read-out: Amylin Receptor cAMP Stimulation Activity: EC50
T2 construct: expressed in transfected cells; host or cells: COS-7
T2 sequence (O60896 24-148, one chain of several): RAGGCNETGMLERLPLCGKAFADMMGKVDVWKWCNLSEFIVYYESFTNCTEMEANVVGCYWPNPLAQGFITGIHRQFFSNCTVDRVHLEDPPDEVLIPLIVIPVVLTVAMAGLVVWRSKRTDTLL
Description: AMYRs are heterodimers of the class B calcitonin (CT) G-protein-coupled receptor (CTR) and receptor activity-modifying proteins (RAMPs). All three RAMPs can interact with the CTR and form AMY1, AMY2, AMY3 with RAMP1, RAMP2 and RAMP3, respectively. Like other class B1 GPCRs, the CT receptor family is canonically coupled to Gs-mediated cAMP production, and measurement of cAMP accumulation has been the primary assay used to determine peptide selectivity and potency.
as §2, with “and RAMP3, simultaneously.” for “to create COS7-human CTR Clone #2 stable cell line.”, “COS-7/AMY3” for “COS7-human CTR Clone #2”
as §1

Compound	EC50 [1] [nM]	EC50 [2] [nM]
O=C1c2c(nc(CCc3ccc(F)cc3)c(-c3n[nH]c(=O)o3)c2-c2ccc3c(c2)oc(=O)n3Cc2ccc(F)cn2)[C@@H]2CCCN12 [Compound 164, (S)-6-(2-(4-fluorophenethyl)-5-oxo-3-(5-oxo-4,5-dihydro-1,3,4-oxadiazol-2-yl)-7,8,9,9a-tetrahydro-5H-pyrido[2,3-a]pyrrolizin-4-yl)-3-((5-fluoropyridin-2-yl)methyl)benzo[d]oxazol-2(3H)-one]	4.28	39.9
O=C1c2c(nc(CCc3ccc(F)cc3)c(-c3n[nH]c(=O)o3)c2-c2cc3ccnc(N[C@@H]4COc5ccccc54)c3s2)[C@@H]2CCCN12 [Compound 169, 5-((S)-4-(7-(((S)-2,3-dihydrobenzofuran-3-yl)amino)thieno[2,3-c]pyridin-2-yl)-2-(4-fluorophenethyl)-5-oxo-7,8,9,9a-tetrahydro-5H-pyrido[2,3-a]pyrrolizin-3-yl)-1,3,4-oxadiazol-2(3H)-one]	10.2	254
O=C1c2c(nc(CCc3ccc(F)cc3)c(-c3n[nH]c(=O)o3)c2-c2cc3ccnc(N[C@@H]4CCOc5ccccc54)c3s2)[C@@H]2CCCN12 [Compound 170]	1.19	33.1
COc1cccc2c1CC[C@H]2Nc1nccc2cc(-c3c4c(nc(CCc5cccc(C(F)(F)F)c5)c3-c3n[nH]c(=O)o3)[C@@H]3CCCN3C4=O)sc12 [Compound 171, 5-((S)-4-(7-(((R)-4-methoxy-2,3-dihydro-1H-inden-1-yl)amino)thieno[2,3-c]pyridin-2-yl)-5-oxo-2-(3-(trifluoromethyl)phenethyl)-7,8,9,9a-tetrahydro-5H-pyrido[2,3-a]pyrrolizin-3-yl)-1,3,4-oxadiazol-2(3H)-one]	1.52	71.4
COc1cccc2c1CC[C@H]2Nc1nccc2cc(-c3c4c(nc(CCC5CCCCC5)c3-c3n[nH]c(=O)o3)[C@@H]3CCCN3C4=O)sc12 [Compound 172, 5-((S)-2-(2-cyclohexylethyl)-4-(7-(((R)-4-methoxy-2,3-dihydro-1H-inden-1-yl)amino)thieno[2,3-c]pyridin-2-yl)-5-oxo-7,8,9,9a-tetrahydro-5H-pyrido[2,3-a]pyrrolizin-3-yl)-1,3,4-oxadiazol-2(3H)-one]	2.06	51.1
COc1c(Cl)ccc2c1CC[C@H]2Nc1nccc2cc(-c3c4c(nc(CCc5ccc(F)cc5)c3-c3n[nH]c(=O)o3)[C@@H]3CCCN3C4=O)sc12 [Compound 173, 5—((S)-4-(7-(((R)-5-chloro-4-methoxy-2,3-dihydro-1H-inden-1-yl)amino)thieno[2,3-c]pyridin-2-yl)-2-(4-fluorophenethyl)-5-oxo-7,8,9,9a-tetrahydro-5H-pyrido[2,3-a]pyrrolizin-3-yl)-1,3,4-oxadiazol-2(3H)-one]	0.788	16.9

Stronger by EC50 [1], values ahead:

EC50 [1] [nM]	EC50 [2] [nM]	Compound
0.157	3.71	N#Cc1ccc(Cn2c(=O)oc3cc(-c4c(-c5n[nH]c(=O)o5)c(CCc5ccc(F)cc5)nc5c4c(=O)n4n5CCC4)ccc32)cc1F [Compound 162, 2-fluoro-4-((6-(2-(4-fluorophenethyl)-5-oxo-3-(5-oxo-4,5-dihydro-1,3,4-oxadiazol-2-yl)-8,9-dihydro-5H,7H-pyrazolo[1′,2′:1,2]pyrazolo[3,4-b]pyridin-4-yl)-2-oxobenzo[d]oxazol-3(2H)-yl)methyl)benzonitrile]
0.588	11.2	CC(C)C1CS(=O)(=O)c2c1nc(CCc1ccc(F)cc1)c(-c1n[nH]c(=O)o1)c2-c1ccc2c(c1)oc(=O)n2Cc1ccc(C#N)cn1 (stereo not drawn) [Compound 163, 6-((6-(5-(4-fluorophenethyl)-3-isopropyl-1,1-dioxido-6-(5-oxo-4,5-dihydro-1,3,4-oxadiazol-2-yl)-2,3-dihydrothieno[3,2-b]pyridin-7-yl)-2-oxobenzo[d]oxazol-3(2H)-yl)methyl)nicotinonitrile]
0.539	6.73	N#Cc1cc2c(cc1F)[C@H](Nc1nccc3cc(-c4c5c(nc(CCc6ccc(F)cc6)c4-c4n[nH]c(=O)o4)[C@@H]4CCCN4C5=O)sc13)CC2 [Compound 165, (R)-6-fluoro-1-((2-((S)-2-(4-fluorophenethyl)-5-oxo-3-(5-oxo-4,5-dihydro-1,3,4-oxadiazol-2-yl)-7,8,9,9a-tetrahydro-5H-pyrido[2,3-a]pyrrolizin-4-yl)thieno[2,3-c]pyridin-7-yl)amino)-2,3-dihydro-1H-indene-5-carbonitrile]
0.0875	1.38	O=C1c2c(nc(CCc3ccc(F)cc3)c(-c3n[nH]c(=O)o3)c2-c2cc3ccnc(N[C@@H]4CCc5cc(F)c(F)cc54)c3s2)[C@@H]2CCCN12 [Compound 166, 5-((S)-4-(7-(((R)-5,6-difluoro-2,3-dihydro-1H-inden-1-yl)amino)thieno[2,3-c]pyridin-2-yl)-2-(4-fluorophenethyl)-5-oxo-7,8,9,9a-tetrahydro-5H-pyrido[2,3-a]pyrrolizin-3-yl)-1,3,4-oxadiazol-2(3H)-one]
0.13	4.38	COc1c(F)ccc2c1CC[C@H]2Nc1nccc2cc(-c3c4c(nc(CCc5ccc(F)cc5)c3-c3n[nH]c(=O)o3)[C@@H]3CCCN3C4=O)sc12 [Compound 167, 5-((S)-4-(7-(((R)-5-fluoro-4-methoxy-2,3-dihydro-1H-inden-1-yl)amino)thieno[2,3-c]pyridin-2-yl)-2-(4-fluorophenethyl)-5-oxo-7,8,9,9a-tetrahydro-5H-pyrido[2,3-a]pyrrolizin-3-yl)-1,3,4-oxadiazol-2(3H)-one]
0.341	15.3	O=C1c2c(nc(CCc3ccc(F)cc3)c(-c3n[nH]c(=O)o3)c2-c2cc3ccnc(N[C@@H]4CCc5c4ccc(F)c5Cl)c3s2)[C@@H]2CCCN12 [Compound 168, 5-((S)-4-(7-(((R)-4-chloro-5-fluoro-2,3-dihydro-1H-inden-1-yl)amino)thieno[2,3-c]pyridin-2-yl)-2-(4-fluorophenethyl)-5-oxo-7,8,9,9a-tetrahydro-5H-pyrido[2,3-a]pyrrolizin-3-yl)-1,3,4-oxadiazol-2(3H)-one]

From patent US12486269B2 (Aconcagua Bio, Inc., priority 2024, dated 2025)
